In article PMC9516332 (Frontiers in Oncology, 2022):
One block for each molecule: values may come before it.

Tests used:
[1] = target: T1, RET (Homo sapiens, UniProt P07949); assay: Biochemical kinase assay (MSA), IC50; conditions: biochemical assays
T1 construct: purchased Carna Biosciences (only by web pointer)

[2] = target: T2, FGFR1 (Homo sapiens, UniProt P11362); assay: Biochemical kinase assay (MSA), IC50
T2 construct: purchased Carna Biosciences (only by web pointer)

[3] = test system: RET-altered cell lines (LC-2/ad, TT); assay: Cell viability assay, RET-altered versus RET wild-type cell lines; type: cell-based; conditions: for lower IC50 in RET-altered versus wild-type cell lines: MANOVA
[4] = target: T3, FGFR4 (Homo sapiens, UniProt P22455); assay: Biochemical kinase assay (MSA), IC50
T3 construct: purchased Carna Biosciences (only by web pointer)
T3 sequence (P22455 22-802): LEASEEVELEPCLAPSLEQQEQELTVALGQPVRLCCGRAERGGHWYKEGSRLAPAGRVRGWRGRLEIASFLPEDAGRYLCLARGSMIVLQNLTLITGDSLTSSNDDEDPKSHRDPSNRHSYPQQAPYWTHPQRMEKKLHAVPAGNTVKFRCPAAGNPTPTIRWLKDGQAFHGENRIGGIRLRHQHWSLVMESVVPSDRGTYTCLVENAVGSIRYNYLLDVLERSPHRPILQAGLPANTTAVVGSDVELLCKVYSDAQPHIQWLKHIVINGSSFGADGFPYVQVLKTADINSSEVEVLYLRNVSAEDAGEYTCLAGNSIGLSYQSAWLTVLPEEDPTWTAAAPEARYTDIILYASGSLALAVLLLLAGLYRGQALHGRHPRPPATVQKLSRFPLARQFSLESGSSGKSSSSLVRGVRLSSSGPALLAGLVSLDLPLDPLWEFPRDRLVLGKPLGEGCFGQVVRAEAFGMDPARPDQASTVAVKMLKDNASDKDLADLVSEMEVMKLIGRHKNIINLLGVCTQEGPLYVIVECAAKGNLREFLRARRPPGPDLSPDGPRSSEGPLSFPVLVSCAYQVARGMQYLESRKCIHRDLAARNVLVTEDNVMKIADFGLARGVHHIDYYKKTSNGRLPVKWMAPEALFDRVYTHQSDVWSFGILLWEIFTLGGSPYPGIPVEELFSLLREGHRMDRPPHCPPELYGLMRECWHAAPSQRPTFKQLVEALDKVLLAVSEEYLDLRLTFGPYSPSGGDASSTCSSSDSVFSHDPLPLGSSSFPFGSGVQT

[5] = target: T4, FGFR3 (Homo sapiens, UniProt P22607); assay: Biochemical kinase assay (MSA), IC50
T4 construct: purchased Carna Biosciences (only by web pointer)
T4 sequence (P22607 23-806): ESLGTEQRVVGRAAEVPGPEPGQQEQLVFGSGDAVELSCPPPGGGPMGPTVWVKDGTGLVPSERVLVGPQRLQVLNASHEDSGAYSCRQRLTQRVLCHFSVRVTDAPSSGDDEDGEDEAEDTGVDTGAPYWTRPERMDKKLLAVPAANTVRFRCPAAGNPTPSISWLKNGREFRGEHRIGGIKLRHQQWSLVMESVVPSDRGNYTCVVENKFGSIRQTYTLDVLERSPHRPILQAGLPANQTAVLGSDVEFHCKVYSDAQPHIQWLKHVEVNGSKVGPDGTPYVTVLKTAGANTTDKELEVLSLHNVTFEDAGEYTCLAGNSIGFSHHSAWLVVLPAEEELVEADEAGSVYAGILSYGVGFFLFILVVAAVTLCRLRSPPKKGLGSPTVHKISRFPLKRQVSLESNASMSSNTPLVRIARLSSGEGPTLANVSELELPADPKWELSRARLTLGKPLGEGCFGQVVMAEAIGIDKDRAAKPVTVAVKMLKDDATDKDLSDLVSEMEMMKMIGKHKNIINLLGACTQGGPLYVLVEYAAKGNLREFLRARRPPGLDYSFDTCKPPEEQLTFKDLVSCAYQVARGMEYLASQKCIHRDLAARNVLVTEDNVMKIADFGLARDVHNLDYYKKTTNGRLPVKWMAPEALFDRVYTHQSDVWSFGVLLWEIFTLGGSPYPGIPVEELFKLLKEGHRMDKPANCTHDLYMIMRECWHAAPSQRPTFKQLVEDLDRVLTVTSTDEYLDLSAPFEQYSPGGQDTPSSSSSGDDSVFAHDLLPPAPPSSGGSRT

[6] = target: T5, ROS (Homo sapiens, UniProt P08922); assay: Biochemical kinase assay (MSA), IC50; conditions: biochemical assays
T5 construct: purchased Carna Biosciences (only by web pointer)

[7] = target: T6, ALK (Homo sapiens, UniProt Q9UM73); assay: Biochemical kinase assay (MSA), IC50
T6 construct: purchased Carna Biosciences (only by web pointer)
T6 sequence (Q9UM73 19-1620): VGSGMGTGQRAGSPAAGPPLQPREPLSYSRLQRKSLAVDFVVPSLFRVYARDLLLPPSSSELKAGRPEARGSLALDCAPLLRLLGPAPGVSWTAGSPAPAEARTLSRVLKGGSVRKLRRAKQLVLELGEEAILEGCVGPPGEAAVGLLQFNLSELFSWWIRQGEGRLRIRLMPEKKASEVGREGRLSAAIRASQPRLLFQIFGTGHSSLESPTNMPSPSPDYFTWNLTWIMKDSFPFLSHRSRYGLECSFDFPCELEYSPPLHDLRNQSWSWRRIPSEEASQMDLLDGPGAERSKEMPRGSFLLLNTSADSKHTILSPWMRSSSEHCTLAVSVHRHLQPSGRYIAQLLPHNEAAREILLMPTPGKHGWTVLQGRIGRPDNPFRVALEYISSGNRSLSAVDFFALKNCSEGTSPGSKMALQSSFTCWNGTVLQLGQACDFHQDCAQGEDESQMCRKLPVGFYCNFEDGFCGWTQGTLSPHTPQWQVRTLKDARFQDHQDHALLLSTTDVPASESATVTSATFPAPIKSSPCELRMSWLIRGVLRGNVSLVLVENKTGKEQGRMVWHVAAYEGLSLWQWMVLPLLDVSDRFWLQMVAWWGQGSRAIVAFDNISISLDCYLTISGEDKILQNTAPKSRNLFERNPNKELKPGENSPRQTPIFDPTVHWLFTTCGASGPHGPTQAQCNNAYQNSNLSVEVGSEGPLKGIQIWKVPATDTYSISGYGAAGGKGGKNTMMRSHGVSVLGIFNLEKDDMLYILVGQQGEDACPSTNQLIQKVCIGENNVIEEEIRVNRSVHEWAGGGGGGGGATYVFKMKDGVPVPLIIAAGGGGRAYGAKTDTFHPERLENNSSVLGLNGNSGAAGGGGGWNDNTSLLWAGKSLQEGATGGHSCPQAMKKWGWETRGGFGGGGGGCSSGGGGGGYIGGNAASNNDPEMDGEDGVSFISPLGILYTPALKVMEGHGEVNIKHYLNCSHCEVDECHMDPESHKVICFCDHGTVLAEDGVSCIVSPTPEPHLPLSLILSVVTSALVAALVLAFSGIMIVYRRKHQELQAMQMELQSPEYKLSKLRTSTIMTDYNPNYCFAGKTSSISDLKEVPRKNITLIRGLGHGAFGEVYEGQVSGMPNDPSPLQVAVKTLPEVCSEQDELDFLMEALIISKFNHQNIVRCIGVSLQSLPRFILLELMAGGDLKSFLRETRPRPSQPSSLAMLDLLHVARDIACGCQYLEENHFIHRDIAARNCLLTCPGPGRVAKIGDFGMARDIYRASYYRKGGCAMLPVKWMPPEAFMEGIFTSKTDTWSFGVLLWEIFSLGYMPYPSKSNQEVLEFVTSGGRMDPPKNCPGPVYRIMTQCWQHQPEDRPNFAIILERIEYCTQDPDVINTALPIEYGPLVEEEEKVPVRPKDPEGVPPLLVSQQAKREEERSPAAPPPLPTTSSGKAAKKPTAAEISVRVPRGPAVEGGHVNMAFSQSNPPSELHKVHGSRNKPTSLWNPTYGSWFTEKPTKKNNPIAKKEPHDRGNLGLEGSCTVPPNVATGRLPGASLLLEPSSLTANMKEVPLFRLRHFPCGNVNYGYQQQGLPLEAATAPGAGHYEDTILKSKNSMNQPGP

[8] = test system: FLT3 ITD-mutant cell lines MOLM-13 and MV4-11; assay: Cell viability assay; type: cell-based
[9] = test system: MET-altered cell lines; conditions: MANOVA
[10] = target: T7, HER4 (Homo sapiens, UniProt Q15303); assay: Biochemical kinase assay (MSA), IC50
T7 construct: purchased Carna Biosciences (only by web pointer)

[11] = target: T8, EGFR (Homo sapiens, UniProt P00533); assay: Biochemical kinase assay (MSA), IC50
T8 construct: purchased Carna Biosciences (only by web pointer)

[12] = target: T9, HER2 (Homo sapiens, UniProt P04626); assay: Biochemical kinase assay (MSA), IC50
T9 construct: purchased Carna Biosciences (only by web pointer)

[13] = target: MEK2 (Homo sapiens, UniProt P36507); assay: Enzyme-linked immunosorbent assay (ELISA) of enzymatic activity, IC50; type: biochemical
Chain of MEK2 (P36507 whole entry): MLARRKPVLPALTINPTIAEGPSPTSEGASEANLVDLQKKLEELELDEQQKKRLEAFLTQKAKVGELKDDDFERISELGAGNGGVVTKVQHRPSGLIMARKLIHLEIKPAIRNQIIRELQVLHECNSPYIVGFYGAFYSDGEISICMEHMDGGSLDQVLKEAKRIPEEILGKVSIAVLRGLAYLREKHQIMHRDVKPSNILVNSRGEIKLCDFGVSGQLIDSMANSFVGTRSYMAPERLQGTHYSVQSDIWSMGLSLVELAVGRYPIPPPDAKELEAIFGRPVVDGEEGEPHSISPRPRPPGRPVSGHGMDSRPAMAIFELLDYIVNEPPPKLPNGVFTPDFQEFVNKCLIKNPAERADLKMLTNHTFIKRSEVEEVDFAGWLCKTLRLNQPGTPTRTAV

[14] = target: MEK1 (Homo sapiens, UniProt Q02750); assay: as above; type: biochemical
Chain of MEK1 (Q02750 whole entry): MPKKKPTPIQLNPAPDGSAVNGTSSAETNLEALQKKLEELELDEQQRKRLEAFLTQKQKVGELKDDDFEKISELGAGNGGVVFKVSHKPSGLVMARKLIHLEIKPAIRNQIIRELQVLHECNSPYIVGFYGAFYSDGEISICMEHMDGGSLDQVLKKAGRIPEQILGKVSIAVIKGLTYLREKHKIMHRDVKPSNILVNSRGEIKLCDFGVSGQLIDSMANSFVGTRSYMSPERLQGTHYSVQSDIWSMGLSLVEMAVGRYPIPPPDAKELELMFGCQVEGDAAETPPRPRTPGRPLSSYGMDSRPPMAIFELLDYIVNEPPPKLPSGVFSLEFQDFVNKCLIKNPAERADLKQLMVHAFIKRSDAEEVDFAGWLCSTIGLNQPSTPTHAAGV

[15] = target: T10, BRK (Homo sapiens, UniProt Q13882); assay: Biochemical kinase assay (MSA), IC50
T10 construct: purchased Carna Biosciences (only by web pointer)

[16] = test system: ALK-altered cell lines; assay: Cell viability assay, ALK-altered versus ALK wild-type cell lines; type: cell-based; conditions: MANOVA
[17] = target: T11, FLT3 (Homo sapiens, UniProt P36888); assay: Biochemical kinase assay (MSA), IC50; conditions: biochemical assays
T11 construct: purchased Carna Biosciences (only by web pointer)

[18] = test system: EGFR double mutants p.ex19del/T790M and p.L858R/T790M; assay: Biochemical kinase assays with EGFR mutants
[19] = test system: NCI-H1975 (EGFR p.L858R + p.T790M); assay: Cell viability assay; type: cell-based

T2 sequence (P11362 22-822): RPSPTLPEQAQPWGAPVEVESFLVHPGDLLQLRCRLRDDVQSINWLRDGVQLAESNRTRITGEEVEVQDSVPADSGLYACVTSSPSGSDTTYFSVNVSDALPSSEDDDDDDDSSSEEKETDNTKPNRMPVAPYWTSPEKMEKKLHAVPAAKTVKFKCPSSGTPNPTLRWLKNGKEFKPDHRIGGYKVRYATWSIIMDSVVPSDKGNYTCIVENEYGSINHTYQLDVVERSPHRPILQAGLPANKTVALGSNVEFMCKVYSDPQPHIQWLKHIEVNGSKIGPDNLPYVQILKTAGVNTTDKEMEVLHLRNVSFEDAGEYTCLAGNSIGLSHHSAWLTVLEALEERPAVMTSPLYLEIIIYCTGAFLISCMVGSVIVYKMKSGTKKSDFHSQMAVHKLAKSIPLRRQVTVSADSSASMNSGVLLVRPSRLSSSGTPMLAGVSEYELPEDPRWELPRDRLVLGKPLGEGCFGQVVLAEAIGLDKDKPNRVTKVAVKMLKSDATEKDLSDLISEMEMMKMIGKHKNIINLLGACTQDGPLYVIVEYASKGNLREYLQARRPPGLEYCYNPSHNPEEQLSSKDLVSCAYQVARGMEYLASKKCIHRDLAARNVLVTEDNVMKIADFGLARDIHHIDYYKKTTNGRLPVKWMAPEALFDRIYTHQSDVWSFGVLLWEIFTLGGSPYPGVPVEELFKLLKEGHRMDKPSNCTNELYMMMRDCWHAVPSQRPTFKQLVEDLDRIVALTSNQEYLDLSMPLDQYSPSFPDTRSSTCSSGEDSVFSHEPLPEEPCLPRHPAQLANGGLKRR

- potency on RET compared to pralsetinib [1]: almost two-fold more potent
- IC50 [2]: 46 nM
- IC50 [4]: 260 nM
- IC50 [5]: 50 nM
SMILES: COc1ccc(CN2C3CC2CN(c2ccc(-c4cc(OCC(C)(C)O)cn5ncc(C#N)c45)cn2)C3)cn1 [selpercatinib]
- lower IC50 in RET-altered versus wild-type cell lines [3]: 232 fold
- potency in the RET-altered cell lines compared to pralsetinib ([3]; cell viability): three-fold more potent

- higher IC50 on ROS1 compared to TRKA-C [6]: around 100 fold
- IC50 [7]: > 1000 nM
- higher IC50 in MOLM-13 and MV4-11 compared to AP-1060 ([8]; cell viability): more than 1000 fold
SMILES: O=C(Nc1cnn2ccc(N3CCC[C@@H]3c3cc(F)ccc3F)nc12)N1CC[C@H](O)C1 [larotrectinib]

SMILES: CNC(=O)c1ccc(-c2cnc3ncc(Cc4ccc5ncccc5c4)n3n2)cc1F [capmatinib]
- IC50 [7]: > 1000 nM
- higher potency in MET-altered compared to MET wild-type cell lines [9]: over 10,000 fold

- IC50 [2]: 11 nM
- IC50 [4]: 183 nM
- IC50 [5]: 50 nM
SMILES: CO[C@]1(C(=O)N[C@@H](C)c2ccc(-n3cc(F)cn3)nc2)CC[C@H](c2nc(C)cc(Nc3cc(C)[nH]n3)n2)CC1 [pralsetinib]
- lower IC50 in RET-altered versus wild-type cell lines [3]: 76 fold

- IC50 [10]: 95 nM
- IC50 [11]: 6.7 nM
- IC50 [12]: 3.3 nM
SMILES: Cc1cc(Nc2ncnc3ccc(NC4=NC(C)(C)CO4)cc23)ccc1Oc1ccn2ncnc2c1 [tucatinib]

- IC50 [13]: > 1000 nM
- IC50 [14]: 503 nM
SMILES: Cn1cnc2c(F)c(Nc3ccc(Br)cc3F)c(C(=O)NOCCO)cc21 [binimetinib]

SMILES: C=CC(=O)N1CCC([C@@H]2CCNc3c(C(N)=O)c(-c4ccc(Oc5ccccc5)cc4)nn32)CC1 [zanubrutinib]
- IC50 [15]: 18 nM

SMILES: O=C(c1ccc(F)c(F)c1Nc1ccc(I)cc1F)N1CC(O)([C@@H]2CCCCN2)C1 [cobimetinib]
- IC50 [13]: 190 nM
- IC50 [14]: 61 nM

SMILES: CCc1nc(C(N)=O)c(Nc2ccc(N3CCC(N4CCN(C)CC4)CC3)c(OC)c2)nc1NC1CCOCC1 [gilteritinib]
- difference in IC50 between ALK-altered and ALK wild-type cell lines [16]: 55 fold
- potency in the FLT3 ITD-mutant cell lines compared to midostaurin ([8]; on average): eight times more potent
- potency on FLT3 compared to midostaurin [17]: around eight-fold more potent

SMILES: CN1CCN(c2ccc(C(=O)Nc3n[nH]c4ccc(Cc5cc(F)cc(F)c5)cc34)c(NC3CCOCC3)c2)CC1 [entrectinib]
- difference in IC50 between ALK-altered and ALK wild-type cell lines [16]: 12 fold

SMILES: COc1cc2ncnc(Nc3ccc(F)c(Cl)c3)c2cc1NC(=O)/C=C/CN1CCCCC1 [dacomitinib]
- lower potency on double mutants (p.T790M plus sensitizing mutation) than on wild-type EGFR and sensitizing mutants [18]: 30 fold
- lower potency in NCI-H1975 compared to osimertinib [19]: 28 fold
